Assay results taken from PubChem BioAssay AID192 (DTP/NCI, 2004).
Toxic doses and inconclusive results are not listed. How the source made its calls: active means survival T/C of 150% or more; inactive means T/C below 125% in these data. Peptide text beside a SMILES is read from it. * marks the point of attachment. Boc = CC(C)(C)OC(=O)*

System: BDF1 mice, B16 melanoma ip, median survival T/C
Experiment: NCI In Vivo Anticancer Drug Screen. Data for tumor model B16 Melanoma (intraperitoneal) in B6D2F1 (BDF1) mice
Conditions: endpoint: median survival time, higher = longer survival
Procedure, shortened: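 Each result divides a survival or tumor-size measurement in the compound-treated group by the same measurement in the vehicle group.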

[1] = dose: 100.0 mg/kg/injection, schedule: Q01DX009 (ip), vehicle: Klucel (hydroxypropylcellulose) (HPC)
[2] = dose: 200.0 mg/kg/injection, schedule: Q01DX009 (ip), vehicle: Klucel (hydroxypropylcellulose) (HPC)
[3] = dose: 400.0 mg/kg/injection, schedule: Q01DX009 (ip), vehicle: Klucel (hydroxypropylcellulose) (HPC)
[4] = dose: 50.0 mg/kg/injection, schedule: Q01DX009 (ip), vehicle: saline with Tween-80
[5] = dose: 50.0 mg/kg/injection, schedule: Q01DX009 (ip), vehicle: saline
[6] = dose: 100.0 mg/kg/injection, schedule: Q01DX009 (ip), vehicle: saline
[7] = dose: 1.56 mg/kg/injection, schedule: Q01DX009 (ip), vehicle: saline with Tween-80

Measured: T/C

CCOC(=O)CCCN(c1ccccc1CC(=O)OCC)S(C)(=O)=O
inactive: dose: 100.0 mg/kg/injection, schedule: Q04DX003 (ip), vehicle: Klucel (hydroxypropylcellulose) (HPC) 96 % of control | dose: 200.0 mg/kg/injection, schedule: Q04DX003 (ip), vehicle: Klucel (hydroxypropylcellulose) (HPC) 104 % of control | dose: 400.0 mg/kg/injection, schedule: Q04DX003 (ip), vehicle: Klucel (hydroxypropylcellulose) (HPC) 96 % of control

CCN(CC)CCCNC(=S)NC(C)(C)CC(C)=O
inactive: dose: 75.0 mg/kg/injection, schedule: Q04DX003 (ip), vehicle: Klucel (hydroxypropylcellulose) (HPC) 95 % of control | dose: 150.0 mg/kg/injection, schedule: Q04DX003 (ip), vehicle: Klucel (hydroxypropylcellulose) (HPC) 92 % of control | dose: 300.0 mg/kg/injection, schedule: Q04DX003 (ip), vehicle: Klucel (hydroxypropylcellulose) (HPC) 95 % of control

N#CCN(CC#N)CC#N
inactive: dose: 1.56 mg/kg/injection, schedule: Q01DX009 (ip), vehicle: saline 97 % of control | dose: 3.13 mg/kg/injection, schedule: Q01DX009 (ip), vehicle: saline 102 % of control | dose: 3.13 mg/kg/injection, schedule: Q04DX003 (ip), vehicle: saline with Tween-80 113 % of control | dose: 6.25 mg/kg/injection, schedule: Q01DX009 (ip), vehicle: saline 100 % of control | dose: 6.25 mg/kg/injection, schedule: Q04DX003 (ip), vehicle: saline with Tween-80 94 % of control

Cc1ccc2c(c1)C(=O)c1ccccc1S2(=O)=O
inactive: [1] 104 % of control | [2] 98 % of control | [3] 93 % of control

CC(=O)OC1CCC2(C)C(CCC3C4CC=C(C(C)=O)C4(C)CCC32)C1 (configuration not stated)
inactive: [1] 86 % of control | [2] 98 % of control | [3] 90 % of control

CCCCOP(=O)(CCl)OCCCC
inactive: dose: 50.0 mg/kg/injection, schedule: Q01DX009 (ip), vehicle: Klucel (hydroxypropylcellulose) (HPC) 97 % of control | [1] 86 % of control

COc1cc(/C=N/NC(=O)N/N=C/c2cc(OC)c(OC)c(OC)c2)cc(OC)c1OC
inactive: [1] 93 % of control | [2] 90 % of control

CC(C)(C)OC(=O)NC(CCC(N)=O)C(=O)ON1C(=O)CCC1=O (configuration not stated)
inactive: [4] 100 % of control | dose: 100.0 mg/kg/injection, schedule: Q01DX009 (ip), vehicle: saline with Tween-80 93 % of control | dose: 200.0 mg/kg/injection, schedule: Q01DX009 (ip), vehicle: saline with Tween-80 97 % of control | dose: 400.0 mg/kg/injection, schedule: Q01DX009 (ip), vehicle: saline with Tween-80 86 % of control

CN1CCC(CO)C1 (configuration not stated)
inactive: dose: 6.25 mg/kg/injection, schedule: Q01DX009 (ip), vehicle: water 99 % of control | dose: 12.5 mg/kg/injection, schedule: Q01DX009 (ip), vehicle: water 109 % of control | dose: 25.0 mg/kg/injection, schedule: Q01DX009 (ip), vehicle: water 108 % of control | [5] 100 % of control | dose: 50.0 mg/kg/injection, schedule: Q01DX009 (ip), vehicle: water 103 % of control | [6] 97 % of control | dose: 200.0 mg/kg/injection, schedule: Q01DX009 (ip), vehicle: saline 91 % of control

CC(C)(C)OC(=O)NCC(=O)NCC(=O)O (Boc-Gly-Gly-OH)
inactive: [5] 94 % of control | [6] 96 % of control

NC(=O)/C=C/C(=O)c1c(Cl)cccc1Cl
inactive: dose: 0.78 mg/kg/injection, schedule: Q01DX009 (ip), vehicle: saline with Tween-80 103 % of control | [7] 106 % of control | dose: 3.12 mg/kg/injection, schedule: Q01DX009 (ip), vehicle: saline with Tween-80 112 % of control

NN1C(=O)c2ccc3c4c(ccc(c24)C1=O)CC3
inactive: dose: 50.0 mg/kg/injection, schedule: Q01DX009 (ip), vehicle: suspension in saline 104 % of control | dose: 100.0 mg/kg/injection, schedule: Q01DX009 (ip), vehicle: suspension in saline 102 % of control | dose: 200.0 mg/kg/injection, schedule: Q01DX009 (ip), vehicle: suspension in saline 97 % of control | dose: 400.0 mg/kg/injection, schedule: Q01DX009 (ip), vehicle: suspension in saline 102 % of control

O=C(OC1C(O)OC2COC(=O)c3cc(O)c(O)c(O)c3-c3c(cc(O)c(O)c3O)C(=O)OC2C1O)c1cc(O)c(O)c(O)c1 (configuration not stated)
inactive: dose: 3.75 mg/kg/injection, schedule: Q01DX009 (ip), vehicle: saline 99 % of control | dose: 7.5 mg/kg/injection, schedule: Q01DX009 (ip), vehicle: saline 112 % of control

Cc1nc2c(O)ccc(O)c2nc1C
inactive: [7] 106 % of control | dose: 3.13 mg/kg/injection, schedule: Q01DX009 (ip), vehicle: saline with Tween-80 102 % of control | dose: 6.25 mg/kg/injection, schedule: Q01DX009 (ip), vehicle: saline with Tween-80 100 % of control | [4] 89 % of control
